# Source: patent US20170231928A1, “SOLID COMPOSITION OF FINGOLIMOD AND PREPARATION THEREOF” (SUNSHINE LAKE PHARMA CO., LTD., priority 2014, published 2017)
# Experiment: Excipient compatibility test: API and diluents, related substances
# Format: physicochemical
# Method: Some API and excipients mixture were weighed, placed in the vials, added with appropriate amount of purified water (w/w), and then sealed (simulated hot and humid environment) and placed in 60° C. oven. Sampled on the 10th day, and tested the content (%) of the related substances (single impurity and total impurities).
# [1] = After 10 days (60° C.), water added, sealed
smiles,measurement,setting,value
"CCCCCCCCc1ccc(CCC(N)(CO)CO)cc1 [API, 2-amino-2-[2-(4-octylphenyl)ethyl]propan-1,3-diol]",Related substances RRT = 0.84,0 day,0.06%
same,Related substances Total impurities,0 day,0.06%
same,Related substances RRT = 0.84,[1],0.07%
same,Related substances RRT = 1.35,[1],0.03%
same,Related substances Total impurities,[1],0.10%
